Data on 11 molecules can be found in patent US20130005721A1, “INDOLIZINE INHIBITORS OF 5-LIPOXYGENASE” (PANMIRA PHARMACEUTICALS, LLC, priority 2009, published 2013).

For the first assay, the system named is human leukocytes (LTB4 production, calcium ionophore stimulated). In words: Human Leukocyte LTB4 Inhibition Assay. Format: cell-based. The following applies: LTB4 by ELISA, read-out: LTB4 HLA IC50. On the procedure:
Human Leukocyte LTB4 Inhibition Assay
A non-limiting example of a human leukocyte inhibition assay is as follows; Blood was drawn from consenting human volunteers into heparanized tubes and 3% dextran 0.9% saline ⅓ rd volume added. After sedimentation of red blood cells a hypotonic lysis of remaining red blood cells was performed and leukocytes sedimented at 1200 rpm. The pellet was resuspended at 1.25×10^5 cells/ml and aliquoted into wells containing 1 μL 100% DMSO (vehicle) or 2.5 μL drug in 100% DMSO. Samples were incubated for 5 minutes at 37° C. and 2 μL calcium ionophore […] (from a 50 mM DMSO stock diluted just prior to the assay in Hanks balanced salt solution (Invitrogen)) to 1.25 mM) was added, solutions mixed and incubated for 30 minutes at 37° C. Samples were centrifuged at 1,200 rpm (−200×g) for 10 minutes at 4° C., plasma removed and a 1:4 dilution assayed for LTB4 concentration using ELISA (Assay Designs). Drug concentrations to achieve 50% inhibition (IC50's) of vehicle LTB4 were determined by nonlinear regression (Graphpad Prism) of % inhibition versus log drug concentration.
`CCC(O)(c1cn(Cc2ccn3c(-c4ccc(F)cc4)c(C(N)=O)cc3c2)nn1)C(F)(F)F` (single isomer, unassigned) [Compound 1-10, 3-(4-Fluoro-phenyl)-7-[4-(1-hydroxy-1-trifluoromethyl-propyl)-[1,2,3]triazol-1-ylmethyl]-indolizine-2-carboxylic acid amide]: the IC50 was below 300 nM.

As for `CCC(O)(c1nnc(NCc2ccn3c(-c4ccc(F)cc4)c(C(N)=O)cc3c2)o1)C(F)(F)F` (single isomer, unassigned) [Compound 1-21, 3-(4-Fluoro-phenyl)-7-{[5-(1-hydroxy-1-trifluoromethyl-propyl)-[1,3,4]oxadiazol-2-ylamino]-methyl}-indolizine-2-carboxylic acid amide], the IC50 is below 300 nM.

The same assay, now with this note: Leukocyte, LTB4 by ELISA, read-out: LTB4 HLA IC50.
Turning to `CCOC(=O)c1cc2cc(Cn3cc(C(O)(CC)C(F)(F)F)nn3)ccn2c1-c1ccc(F)nc1` (centres unmarked) [Compound 1-29, 3-(6-Fluoro-pyridin-3-yl)-7-[4-(1-hydroxy-1-trifluoromethyl-propyl) [1,2,3]triazol-1-ylmethyl]-indolizine-2-carb oxylic acid ethyl ester], the IC50 is below 300 nM.

For `CCC(O)(c1cn(Cc2ccn3c(-c4ccc(C)nc4)c(C#N)cc3c2)nn1)C(F)(F)F` (centres unmarked) [Compound 1-72, 7-[4-(1-Hydroxy-1-trifluoromethyl-propyl)-[1,2,3]triazol-1-ylmethyl]-3-(6-methyl-pyridin-3-yl)-indolizine-2-carbonitrile], the IC50 is below 300 nM.

As for `CCOC(=O)CCNCc1cc2cc(Cn3cc(C(O)(CC)C(F)(F)F)nn3)ccn2c1-c1ccc(F)cc1` (centres unmarked) [Compound 1-37, 3-({3-(4-Fluoro-phenyl)-7-[4-(1-hydroxy-1-trifluoromethyl-propyl)-[1,2,3]triazol-1-ylmethyl]-indolizin-2-ylmethyl}-amino)-propionic acid ethyl ester], the IC50 is below 300 nM.

As to `CCC(O)(c1cn(Cc2ccn3c(-c4cnc5ccccc5c4)c(C#N)cc3c2)nn1)C(F)(F)F` (centres unmarked) [Compound 1-53, 7-[4-(1-Hydroxy-1-trifluoromethyl-propyl)-[1,2,3]triazol-1-ylmethyl]-3-quinolin-3-yl-indolizine-2-carbonitrile], the IC50 is below 300 nM.

Regarding `CCC(O)(c1cn(Cc2ccn3c(-c4ccc(=O)n(C)c4)c(C(N)=O)cc3c2)nn1)C(F)(F)F` (centres unmarked) [Compound 1-68, 7-[4-(1-Hydroxy-1-trifluoromethyl-propyl)-[1,2,3]triazol-1-ylmethyl]-3-(1-methyl-6-oxo-1,6-dihydro-pyridin-3-yl)-indolizine-2-carboxylic acid amide], the IC50 was above 1000 nM.

Turning to `CCC(O)(c1cn(Cc2ccn3c(-c4cccnc4)c(C#N)cc3c2)nn1)C(F)(F)F` (centres unmarked) [Compound 1-26, 7-[4-(1-Hydroxy-1-trifluoromethyl-propyl)-[1,2,3]triazol-1-ylmethyl]-3-pyridin-3-yl-indolizine-2-carbonitrile], the IC50 is below 300 nM.

With `CCOC(=O)c1cc2cc(Cn3cc(C(O)(CC)C(F)(F)F)nn3)ccn2c1-c1cccc(F)c1` (centres unmarked) [Compound 1-46, 3-(3-Fluoro-phenyl)-7-[4-(1-hydroxy-1-trifluoromethyl-propyl)-[1,2,3]triazol-1-ylmethyl]-indolizine-2-carboxylic acid ethyl ester], the IC50 is below 300 nM.

For the molecule `CCC(O)(c1cn(Cc2ccn3c(Cl)c(C#N)cc3c2)nn1)C(F)(F)F` (single isomer, unassigned) [Compound 1-88, 3-Chloro-7-[4-(1-hydroxy-1-trifluoromethyl-propyl)-[1,2,3]triazol-1-ylmethyl]-indolizine-2-carbonitrile], the IC50 was below 300 nM.

With `CCOC(=O)c1cc2cc(Cn3cc(C(O)(CC)C(F)(F)F)nn3)ccn2c1-c1ccc(OCC)nc1` (centres unmarked) [Compound 1-56, 3-(6-Ethoxy-pyridin-3-yl)-7-[4-(1-hydroxy-1-trifluoromethyl-propyl)-[1,2,3]triazol-1-ylmethyl]-indolizine-2-carboxylic acid ethyl ester], the IC50 is below 300 nM.
